# Data taken from paper PMC3914206.
# Columns and labels:
# Type in all cases: binding
# Conditions in all cases: Compound Concentration 10 µM
# panel of 442 kinases [1] = target: T1, panel of 442 kinases (Homo sapiens, UniProt P29376)
# T1 construct: purchased KINOMEscan
# From the text: (§1) We assessed the selectivity of members of this scaffold using the KINOMEscan methodology across a near comprehensive panel of 442 kinases [[18,27]].
# panel of 442 kinases [2] = target: T2, panel of 442 kinases (Homo sapiens, UniProt P49336)
# T2 construct: purchased KINOMEscan
# T2 sequence (P49336 whole entry): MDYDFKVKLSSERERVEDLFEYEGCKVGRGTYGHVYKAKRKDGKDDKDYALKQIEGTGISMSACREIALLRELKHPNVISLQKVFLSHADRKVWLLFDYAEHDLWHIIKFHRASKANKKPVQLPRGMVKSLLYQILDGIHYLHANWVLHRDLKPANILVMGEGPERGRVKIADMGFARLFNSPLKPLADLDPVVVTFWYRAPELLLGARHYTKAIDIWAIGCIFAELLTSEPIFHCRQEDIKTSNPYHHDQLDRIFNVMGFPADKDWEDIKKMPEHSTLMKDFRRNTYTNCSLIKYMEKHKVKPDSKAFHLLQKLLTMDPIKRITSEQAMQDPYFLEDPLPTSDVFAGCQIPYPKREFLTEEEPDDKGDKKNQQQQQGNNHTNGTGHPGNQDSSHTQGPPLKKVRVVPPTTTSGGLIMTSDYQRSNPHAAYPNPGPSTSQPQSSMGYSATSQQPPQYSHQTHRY
# From the text: as §1
# panel of 442 kinases [3] = target: T3, panel of 442 kinases (Homo sapiens, UniProt Q9H422)
# T3 construct: purchased KINOMEscan
# T3 sequence (Q9H422 whole entry): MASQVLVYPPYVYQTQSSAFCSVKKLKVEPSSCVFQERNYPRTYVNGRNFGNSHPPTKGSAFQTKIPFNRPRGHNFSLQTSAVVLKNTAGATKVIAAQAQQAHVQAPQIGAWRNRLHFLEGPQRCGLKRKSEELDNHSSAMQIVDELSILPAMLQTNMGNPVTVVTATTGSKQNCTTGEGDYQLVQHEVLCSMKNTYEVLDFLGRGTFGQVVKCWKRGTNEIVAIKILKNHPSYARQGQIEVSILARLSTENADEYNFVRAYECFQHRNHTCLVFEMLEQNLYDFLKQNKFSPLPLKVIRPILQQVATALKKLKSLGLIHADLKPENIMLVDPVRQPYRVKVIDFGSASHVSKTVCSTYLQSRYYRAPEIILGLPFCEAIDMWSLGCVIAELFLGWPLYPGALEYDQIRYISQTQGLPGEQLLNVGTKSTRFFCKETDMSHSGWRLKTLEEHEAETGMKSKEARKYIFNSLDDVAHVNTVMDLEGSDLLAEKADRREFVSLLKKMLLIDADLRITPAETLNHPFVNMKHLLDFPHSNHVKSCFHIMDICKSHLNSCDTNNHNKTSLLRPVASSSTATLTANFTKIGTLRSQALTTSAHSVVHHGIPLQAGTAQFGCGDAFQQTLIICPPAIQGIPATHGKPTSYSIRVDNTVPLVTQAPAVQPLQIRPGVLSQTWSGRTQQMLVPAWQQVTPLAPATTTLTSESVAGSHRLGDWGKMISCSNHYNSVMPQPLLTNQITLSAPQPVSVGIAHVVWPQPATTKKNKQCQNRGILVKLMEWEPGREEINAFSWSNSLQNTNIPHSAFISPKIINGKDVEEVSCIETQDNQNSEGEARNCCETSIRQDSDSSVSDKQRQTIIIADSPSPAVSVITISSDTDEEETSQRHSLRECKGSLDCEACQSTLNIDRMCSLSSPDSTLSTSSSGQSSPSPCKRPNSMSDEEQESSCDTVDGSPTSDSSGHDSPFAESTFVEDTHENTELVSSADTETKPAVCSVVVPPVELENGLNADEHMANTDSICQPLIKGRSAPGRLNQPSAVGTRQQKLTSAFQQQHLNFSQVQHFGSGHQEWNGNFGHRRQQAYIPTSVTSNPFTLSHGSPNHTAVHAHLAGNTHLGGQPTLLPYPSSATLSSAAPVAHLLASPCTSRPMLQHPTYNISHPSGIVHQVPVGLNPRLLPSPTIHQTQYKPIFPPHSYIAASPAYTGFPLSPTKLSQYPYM
# From the text: as §1
# T1 sequence (P29376 17-864): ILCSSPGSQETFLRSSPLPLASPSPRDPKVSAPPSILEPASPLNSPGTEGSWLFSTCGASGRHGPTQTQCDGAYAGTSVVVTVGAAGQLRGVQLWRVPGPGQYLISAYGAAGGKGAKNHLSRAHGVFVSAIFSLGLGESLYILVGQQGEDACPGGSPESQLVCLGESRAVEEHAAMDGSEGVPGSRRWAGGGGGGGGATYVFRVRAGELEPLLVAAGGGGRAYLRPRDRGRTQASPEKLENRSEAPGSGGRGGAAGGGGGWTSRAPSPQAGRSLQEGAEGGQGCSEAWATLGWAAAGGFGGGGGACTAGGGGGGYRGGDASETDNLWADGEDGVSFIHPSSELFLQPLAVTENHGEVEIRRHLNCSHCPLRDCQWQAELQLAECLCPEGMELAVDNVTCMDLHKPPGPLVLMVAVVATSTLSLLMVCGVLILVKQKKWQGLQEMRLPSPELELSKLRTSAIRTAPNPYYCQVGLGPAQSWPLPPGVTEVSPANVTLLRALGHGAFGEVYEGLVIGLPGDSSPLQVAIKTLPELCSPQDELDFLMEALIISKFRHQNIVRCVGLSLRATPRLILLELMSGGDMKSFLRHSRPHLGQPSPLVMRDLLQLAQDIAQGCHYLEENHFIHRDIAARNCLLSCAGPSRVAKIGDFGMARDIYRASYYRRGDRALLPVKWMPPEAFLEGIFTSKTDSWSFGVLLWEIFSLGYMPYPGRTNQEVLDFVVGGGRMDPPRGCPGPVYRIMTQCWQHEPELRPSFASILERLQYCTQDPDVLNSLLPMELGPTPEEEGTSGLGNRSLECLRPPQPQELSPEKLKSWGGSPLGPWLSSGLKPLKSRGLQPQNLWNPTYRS
SMILES,KINOMEscan: LTK (panel of 442 kinases [1]),KINOMEscan: CDK8 (panel of 442 kinases [2]),KINOMEscan: HIPK3 (panel of 442 kinases [3])
CCOc1cc(C(=O)N2CCC(N3CCN(C)CC3)CC2)ccc1Nc1ncc2c(n1)N(C1CCCC1)c1ccccc1C(=O)N2C [Compound 26],48,95,92
"COc1cc(C(=O)N2CCC(N3CCN(C)CC3)CC2)ccc1Nc1ncc2c(n1)N(C1CCCC1)c1ccccc1C(=O)N2C [Compound 25, 11-cyclopentyl-2-((2-methoxy-4-(4-(4-methylpiperazin-1-yl)piperidine-1-carbonyl)phenyl)amino)-5-methyl-5H-benzo[e]pyrimido[5,4-b][1,4]diazepin-6(11H)-one]",11,100,100
COc1cc(C(=O)N2CCC(N3CCN(C)CC3)CC2)ccc1Nc1ncc2c(n1)N1CCc3cccc(c31)C(=O)N2C [Compound 24],,91,48
COc1cc(C(=O)N2CCC(N3CCN(C)CC3)CC2)ccc1Nc1ncc2c(n1)N(C)c1ccccc1C(=O)N2C [15 (LRRK2-IN-1)],32,100,89
